From patent publication US8669072B2, “Oxadiazoline ligands for modulating the expression of exogenous genes via an ecdysone receptor complex” (Intrexon Corporation, priority 2003, dated 2014)
Where two headings read alike, the source gives them in different places.

Key:
Bombyx mori EcR (VBE) = biological target: T1, Bombyx mori EcR (VBE) (Bombyx mori, UniProt P49881); assay: Z3 assay: β-galactosidase reporter gene induction in HEK-293 clone Z3 (CVBE / 6XEcRE LacZ); assay type: cell-based; settings: for Rel Max FI, Z3 assay: maximum fold induction relative to that of GS-E ligand; for fold induction at 33 µM: HEK293, 48 h, read-out: Fold Induction Average, Z3 assay
T1 construct: expressed in transfected cells; host or cells: Human HEK-293 cells, retrovirally infected, clone Z3
T1 sequence (P49881 86-606 limits assumed): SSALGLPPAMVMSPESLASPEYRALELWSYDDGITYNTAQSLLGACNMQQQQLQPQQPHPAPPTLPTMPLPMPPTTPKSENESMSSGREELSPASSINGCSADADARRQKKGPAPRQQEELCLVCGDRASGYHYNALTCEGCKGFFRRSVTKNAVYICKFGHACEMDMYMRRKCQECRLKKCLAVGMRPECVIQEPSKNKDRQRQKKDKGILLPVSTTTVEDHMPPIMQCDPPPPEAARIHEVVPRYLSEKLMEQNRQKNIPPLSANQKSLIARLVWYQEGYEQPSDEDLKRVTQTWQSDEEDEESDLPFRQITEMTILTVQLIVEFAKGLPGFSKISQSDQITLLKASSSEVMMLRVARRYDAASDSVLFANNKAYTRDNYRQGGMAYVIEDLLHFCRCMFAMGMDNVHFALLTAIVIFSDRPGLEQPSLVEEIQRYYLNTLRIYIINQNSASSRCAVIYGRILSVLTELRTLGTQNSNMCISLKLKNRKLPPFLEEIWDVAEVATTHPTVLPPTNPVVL
T1 sequence (P19793 1-462 partner): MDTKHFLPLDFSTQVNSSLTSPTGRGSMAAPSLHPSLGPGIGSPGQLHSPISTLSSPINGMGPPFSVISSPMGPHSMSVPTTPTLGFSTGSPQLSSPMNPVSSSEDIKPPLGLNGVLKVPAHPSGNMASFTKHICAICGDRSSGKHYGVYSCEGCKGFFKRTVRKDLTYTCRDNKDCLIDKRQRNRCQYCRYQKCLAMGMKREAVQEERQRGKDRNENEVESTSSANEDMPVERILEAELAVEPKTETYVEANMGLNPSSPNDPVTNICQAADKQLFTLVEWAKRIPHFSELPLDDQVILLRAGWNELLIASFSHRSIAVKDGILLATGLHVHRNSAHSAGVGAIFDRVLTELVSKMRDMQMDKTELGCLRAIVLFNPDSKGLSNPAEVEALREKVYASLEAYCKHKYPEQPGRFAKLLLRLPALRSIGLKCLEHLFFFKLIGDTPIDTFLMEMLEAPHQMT

[1] = biological target: T2, GAL4 DBD (1-147)-CfEcR(DEF)/VP16AD-βRXREF-LmUSPEF (Choristoneura fumiferana, UniProt O77240); assay: cell-based; settings: for fold induction at 33.3 µM: 48 h, read-out: Fold Induction Average, 27-63 assay; for Rel Max FI, 27-63 assay: maximum fold induction relative to that of GS-E ligand
T2 construct: The wild-type D, E, and F domains from spruce budworm Choristoneura fumiferana EcR (“CfEcR-DEF”)
In short: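 CHO clone stably carrying the GAL4-DBD–spruce budworm EcR(DEF) and VP16–RXR/USP chimeric receptor with a GAL4-responsive luciferase reporter; ligand added from DMSO stock diluted 300-fold.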

WFN (white fly) = assay: Insect toxicity contact bioassay, WFN; assay type: in vivo; settings: for Insect Toxicity LC50, WFN: in vivo
Description: (§1) The compound to be evaluated was dissolved in an appropriate solvent, usually a mix of acetone, methanol, and water. Test solutions were made by serial dilution of a stock test solution with acetone, methanol, and water. Initial evaluations were made at one or more concentrations on one or more of the following insects:
(§2) Contact bioassays (green peach aphid, two-spotted spider mite, white fly) were conducted by applying a solution of the test compound to the inside surface of a Petri dish. The solution was allowed to air-dry, then each dish was infested and the larvae from each treatment were transferred to a bioassay tray. The trays were held for one to seven days, and the mortality rating was determined for each treatment.

[2] = test system: MTA (two-spotted spider mite); assay: Insect toxicity contact bioassay, MTA; assay type: in vivo; settings: for Insect Toxicity LC50, MTA: in vivo
Description: as §1, §2

[3] = biological target: CfEcR (CDEF)/CfUSP, GST fusion protein (Choristoneura fumiferana, UniProt O77240); assay: CfEcR (CDEF)/CfUSP GST fusion protein assay; assay type: binding
Cabbage Looper = assay: Insect toxicity feeding bioassay, CL; assay type: in vivo; settings: in vivo
Description: as §1
(§3) Feeding bioassays were conducted in bioassay trays containing insect diet. Treatments were made by applying 50 μL of test solution to the surface of the diet in each of 5 wells. After the test solution dried, each well was infested with a single neonate larva. The trays were held for six days and then the mortality rating was determined for each treatment.

Tobacco Budworm = assay: Insect toxicity bioassay, TBW; assay type: in vivo; settings: in vivo
Description: as §1, §3
Some of the tobacco budworm tests were conducted as follows. A test solution containing 600 ppm was made by dissolving a compound of the invention in a 1:1 acetone:methanol solution, then adding water to give a 5:5:90 acetone:methanol:water solution, and finally a surfactant was added at an equivalent of 7.37 g of surfactant per 100 L of test solution (1 ounce of surfactant per 100 gallons of test solution). Appropriate dilutions were prepared in water from the 600 ppm solution. A detached cotton leaf, Gossypium hirsutum was placed on moistened filter paper in a Petri dish (100×20 mms). The leaf was sprayed with the test solution using a rotating turntable sprayer and allowed to dry. The dish was infested with 10 first instar larvae of the tobacco budworm and covered with the lid. If the larvae were alive two days after treatment, fresh untreated cotton leaves were added. All treatments were maintained at 23.9-26.7° C. (75-80° F.) under fluorescent light in a well-ventilated room. Percent mortality was determined at four days after treatment.

[4] = biological target: T3, GAL4 DBD-CfEcR(DEF)/VP16AD-MmRXRE (Choristoneura fumiferana, UniProt O77240); assay: 13B3 assay: luciferase reporter gene induction in stable CHO clone 13B3; assay type: cell-based; settings: for fold induction at 33.3 µM: 48 h, read-out: Fold Induction Average, 13B3 assay; for Rel Max FI, 13B3 assay: maximum fold induction relative to that of GS-E ligand
T3 construct: The wild-type D, E, and F domains from spruce budworm Choristoneura fumiferana EcR (“CfEcR-DEF”)
In short: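 Stable CHO clone 13B3 co-expressing GAL4 DBD-CfEcR(DEF) and VP16AD-MmRXRE with a GAL4 RE-luciferase reporter; ligands from DMSO stocks diluted 300-fold. Luciferase read by luminescence 48 h after treatment, duplicate wells averaged. Fold induction = RLU treated/RLU DMSO; EC50 from three-parameter logistic fit.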

Beet Armyworm = assay: Insect toxicity feeding bioassay, BAW; assay type: in vivo; settings: in vivo
Description: as §1, §3

Plodia = Plodia EC50; assay type: cell-based
Kc = Kc EC50; assay type: cell-based

CfEcR (CDEF)/CfUSP, GST fusion protein, sequence (O77240 entry or part of it): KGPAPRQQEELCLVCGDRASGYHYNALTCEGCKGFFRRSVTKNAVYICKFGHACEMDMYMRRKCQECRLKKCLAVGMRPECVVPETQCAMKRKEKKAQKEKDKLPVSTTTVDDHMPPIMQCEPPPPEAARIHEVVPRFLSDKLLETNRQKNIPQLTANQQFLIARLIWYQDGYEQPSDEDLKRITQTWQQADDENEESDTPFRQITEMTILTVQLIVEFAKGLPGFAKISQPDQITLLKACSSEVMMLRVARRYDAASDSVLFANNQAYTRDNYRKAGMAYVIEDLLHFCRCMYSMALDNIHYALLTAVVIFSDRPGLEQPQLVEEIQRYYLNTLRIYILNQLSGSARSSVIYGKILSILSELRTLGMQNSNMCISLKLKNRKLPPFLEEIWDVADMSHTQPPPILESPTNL
CfEcR (CDEF)/CfUSP, GST fusion protein, sequence (O76202 whole entry, further chain, the tested form may be a part): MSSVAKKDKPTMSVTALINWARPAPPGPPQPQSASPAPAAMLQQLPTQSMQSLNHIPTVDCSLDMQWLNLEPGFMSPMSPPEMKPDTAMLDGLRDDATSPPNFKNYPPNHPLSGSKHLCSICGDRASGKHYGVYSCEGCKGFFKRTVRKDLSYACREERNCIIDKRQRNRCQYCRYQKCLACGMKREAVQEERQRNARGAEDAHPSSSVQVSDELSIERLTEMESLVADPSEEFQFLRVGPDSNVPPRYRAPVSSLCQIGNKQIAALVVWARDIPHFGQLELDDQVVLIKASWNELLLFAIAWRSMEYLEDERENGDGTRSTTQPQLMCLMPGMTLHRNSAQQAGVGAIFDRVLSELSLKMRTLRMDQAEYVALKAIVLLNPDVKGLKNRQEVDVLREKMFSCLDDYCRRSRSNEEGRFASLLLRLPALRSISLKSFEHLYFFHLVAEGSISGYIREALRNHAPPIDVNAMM

| Structure (SMILES) | EC50 (Bombyx mori EcR (VBE)) [µM] | Rel Max FI, Z3 assay (Bombyx mori EcR (VBE)) | EC50 [1] [µM] | fold induction at 33.3 µM [1] | Rel Max FI, 27-63 assay [1] | Insect Toxicity LC50, WFN (WFN (white fly)) [ppm] | Insect Toxicity LC50, MTA [2] [ppm] | EC50 [3] [µM] | Insect Toxicity LC50, CL (Cabbage Looper) [ppm] | Insect Toxicity LC50, TBW (Tobacco Budworm) [ppm] | EC50 [4] [µM] | fold induction at 33.3 µM [4] | Rel Max FI, 13B3 assay [4] | Insect Toxicity LC50, BAW (Beet Armyworm) [ppm] | fold induction at 33 µM (Bombyx mori EcR (VBE)) | further results |
| --- | --- | --- | --- | --- | --- | --- | --- | --- | --- | --- | --- | --- | --- | --- | --- | --- |
| CCc1c(OC)cccc1C(=O)NN1C(c2cc(C)cc(C)c2)=NOC1(C)CC (stereo not shown) [RG-120069] | 1.68 | 0.8 | 3.31 | 1870 | 1.11 | >150 | 146 | 0.0142 | 4.7 | >150 | 2.95 | 478 | 1.02 | 4.7 | – | – |
| CCc1c(OC)cccc1C(=O)NN1C(c2cc(C)cc(C)c2)=NOC1(C)C [RG-120080, N-[3-(3,5-dimethyl-phenyl)-5,5-dimethyl-[1,2,4]oxadiazol-4-yl]-2-ethyl-3-methoxy-benzamide] | 3.95 | 0.71 | 8.35 | – | 1.29 | – | – | – | 47 | >150 | 12.3 | 717 | 1.04 | 23 | 310 | Insect Toxicity % control @ 150 ppm, WFN (WFN (white fly)): 0% @ 150; Insect Toxicity % control @ 150 ppm, MTA [2]: 0% @ 150; Kd [3]: 0.0119 µM |
| CCc1c(OC)cccc1C(=O)NN1C(c2ccccc2)=NOC1(C)CC (stereo not shown) [RG-120076] | 12.4 | 0.9 | ~20 | 4090 | 1.4 | >150 | 92 | 0.00835 | 47 | >150 | > 33.3 | 20.2 | 0.05 | 47 | 0.2 | – |
| CCC1(C)ON=C(c2cc(C)cc(C)c2)N1NC(=O)c1cc2ccccc2s1 (stereo not shown) [RG-120161] | 2.14 | 0.08 | – | – | – | >150 | 110 | 0.0624 | 17 | >150 | 3.46 | 59.9 | 0.14 | 87 | – | – |
| CCc1ccc(C(=O)NN2C(c3cc(C)cc(C)c3)=NOC2(C)CC)cc1 (stereo not shown) [RG-120128] | – | – | ~20 | 338 | 0.18 | >150 | >150 | 0.0285 | 17 | >150 | – | 129 | – | 47 | 403 | – |
| CCc1ccc(C(=O)NN2C(c3cc(C)cc(C)c3)=NOC2(C)C)cc1 [RG-120060] | – | – | > 33 | – | 0.01 | – | – | – | 47 | >150 | – | 16.8 | – | 23 | 108 | Insect Toxicity % control @ 150 ppm, WFN (WFN (white fly)): 0% @ 150; Insect Toxicity % control @ 150 ppm, MTA [2]: 0% @ 150; Kd ([3]; GST fusion protein, read-out: CfEcR Kd): 0.038 µM |
| COc1cccc(C(=O)NN2C(c3ccccc3)=NOC2(C)C)c1C [RG-120042, N-(5,5-dimethyl-3-phenyl-[1,2,4]oxadiazol-4-yl)-3-methoxy-2-methyl-benzamide] | – | – | > 33 | – | 0 | – | – | – | – | – | – | 3.3 | – | – | 19.3 | melting point: 141 to 142 °C; EC50 (Plodia): 0.481 µM; EC50 (Kc): 29 µM |
| CCc1ccc(C(=O)NN2C(c3ccccc3)=NOC23CCCC3)cc1 [RG-120125] | 10 | 0.67 | ~20 | 510 | 0.27 | 150 | 167 | – | 23 | >150 | > 33.3 | 82.6 | 0.16 | 98 | 254 | EC50 ([3]; GST fusion protein, read-out: CfEcR EC50): 0.0579 µM |
